According to patent US11059718B2, “Methods and compositions using peptides and proteins with C-terminal elements” (Sanford Burnham Prebys Medical Discovery Institute, priority 2009, dated 2021):

Assays:
[1] = system: heart (cardiomyocyte apoptosis); test: TUNEL staining of heart sections after DOX-liposome treatment; assay type: in vivo, mice; conditions: 1 mg DOX/kg + iRGD daily, 17 days
Experimental: (FIGS. 14A and 14B) Nude mice bearing orthotopic 22Rv1 human prostate tumors were intravenously injected with DOX-liposomes (3 mg DOX/kg) followed 5 min later by 100 nmol iRGD or PBS. Tumors and tissues were collected 3 hours later. In (FIG. 14A), the tumors were sectioned and stained with an anti-CD31 antibody. The doxorubicin is represented by the light specs that look like four halos in the left panel. Scale bars=200 μm, n=3. In (FIG. 14B), DOX in the tissues was quantified. […] The tumors were harvested and weighed after 17 days of treatment. The number of mice in each group was 5. One of 3 experiments that gave similar results is shown. (FIG. 14D) TUNEL staining was performed immunohistochemically on tissue sections of the tumor and heart samples from the treatment study, and quantified for positivity. Statistical analyses were performed with Student's r-test in (FIG. 14B), and ANOVA in (FIG. 14C) and (FIG. 14D); error bars, s.e.m.; n.s., not significant; single asterisk, p<0.05; double asterisk, p<0.01; triple asterisk, p<0.001. […]
Cryo-sections were immunohistochemically stained, scanned with a Scanscope CM-1 scanner, and positively stained areas were quantified with the ImageScope software (Aperio Technologies, Vista, Calif.; Sugahara et al., 2009). […]

[2] = system: orthotopic 22Rv-1 human prostate cancer xenografts; conditions: mouse, in vivo
Experimental: The circulation time was 2 hrs. for the free peptides, 15 min. for the peptide-displaying phage, and 3 hrs. for the peptide-coupled micelles. […] Representative fields from multiple sections of each of these three tumors are shown. Scale bars=50 μm. […] The samples were subjected to image analysis with Scanscope CM-1 scanner for quantification of the FAM-positive areas. Statistical analysis was performed with Student's t-test. n=3; error bars, s.e.m.; triple asterisk, p<0.001.

tumor = conditions: VEGF locally superfused on tumors; cited from earlier work

Molecule	cardiomyocyte apoptosis (TUNEL), combo group [1]	homing to normal tissue [2]	enhancement of extravasation of albumin and nanoparticles within the tumor (tumor)
N=C(N)NCCC[C@@H]1NC(=O)[C@@H](N)CSSC[C@@H](C(=O)O)NC(=O)[C@H](CC(=O)O)NC(=O)[C@@H]2CCCN2C(=O)CNC(=O)[C@H](CCCCN)NC(=O)[C@H](CC(=O)O)NC(=O)CNC1=O [iRGD]	minimally present	does not detectably home to any normal tissue	–
VEGF	–	–	up to 4 fold
